Counter-ions that a name gives are not always drawn.
Legend:
Format in all cases: cell-based
MV-4-11 cells = test: Anti proliferative activity in MV-4-11 cells by Cell Titer Glo (Promega) assay; conditions: 3 days, CellTiter-Glo
Method: Example-P2: Determination of Anti Proliferative Activity of Compounds in Cell Lines MV-4-11 by Cell Titer Glo® (Promega) Assay
MV-4-11 (CRL-9591™) cells were seeded in 96 well plate flat black clear bottom plates (Corning, Cat. No 3904) using complete DMEM Medium. Next day, selected compounds of the present invention were added to cells from 10 mM stocks made in DMSO (Sigma Cat no. D2650). Each concentration of compound was tested in triplicate with DMSO concentration at a final percentage not exceeding 0.3 in the cells. After the incubation of MV-4-11 cells with compound for 3 days; assay was terminated using 100 μl of CellTiter Glo® reagent (Promega, Cat. no G7572). CellTiter-Glo® Luminescent reagent determines the number of viable cells based on quantitation of ATP present which is an indicator of cell number and metabolic activity. Luminescence readings were taken in Victor-5 instrument. Percent inhibition of proliferation was calculated using formula, % inhibition=100−(luminescence value of test/luminescence value of DMSO control)*100. DMSO control (0%)=Cells in complete media with DMSO; blank=Media alone containing DMSO. EC50 was calculated using graph pad prism software.

SK-MEL-5 cells = test: Anti proliferative activity in SK-MEL-5 cells by Cell Titer Glo (Promega) assay; conditions: retreatment on Day 4, terminated on day 8, CellTiter-Glo
Method: Example-P1: Determination of Anti Proliferative Activity of Compounds in Cell Lines SK-MEL-5 by Cell Titer Glo® (Promega) Assay
Cells were seeded into 96-well plates and the plate was incubated in 37 degrees incubator overnight. The next day, compounds were diluted 3-fold to cover 9-point concentration range in DMSO. Intermediate plate dilution was prepared in media followed with compound treatment in cells. Retreatment of cells with compound dilutions was performed on Day 4 and assay was terminated on day 8 for SK-MEL-5 cells using CellTiter-Glo and the plate was kept on orbital shaker for 20 minutes at RT. Assay was terminated on day 6 for RERF-LC-A1 without a compound retreatment. Luminescence signal was recorded on VICTOR^3 instrument. Percent inhibition of proliferation was calculated at each concentration and plotted against the compound concentration. EC50 value was calculated using GraphPad® software.

SMARCA2 = target: T1, SMARCA2 (Homo sapiens, UniProt P51531); test: SMARCA2 degradation in MV-4-11 cells by Western blot; conditions: MV4-11, 16 h, at 100 nM, vs DMSO, read-out: Percent degradation SMARCA2
T1 construct: endogenous in cells; host or cells: MV-4-11 (CRL-9591)
Method: Example-P3: Determination of SMARCA2 and SMARCA4 Degradation in MV-4-11 Cells by Western Blot
MV-4-11 (CRL-9591™) cells were plated in 6 well plates using complete Iscove's Modified Dulbecco's Medium. On the third day, compounds of present invention were added to cells from 10 mM stocks made in DMSO (Sigma Cat no. D2650). Each concentration of compound was tested with DMSO not exceeding final percentage of 0.1 in the cells. Cells were incubated with the compound for 16 hours followed by harvesting with 1×RIPA lysis buffer (Thermo Fischer, catalogue number #89900) containing protease inhibitor cocktail (Sigma catalogue number #P-8340). Equal amount of protein was loaded on SDS PAGE gel for electrophoresis. Western blot was carried out for detection of either SMARCA2 (Cell signalling technologies, catalogue number #11966) or SMARCA4 antibody (Cell signalling technologies, catalogue number #52251). Beta-Tubulin antibody (Cell signalling technologies, catalogue number #86298) was used as loading control. Percentage of SMARCA2 or SMARCA4 degradation was calculated using formula % Degradation=100−(normalized band intensity in treated sample/normalized band intensity in DMSO sample)*100. Here, “ND” refers to Not determined.

T1 sequence (P51531 whole entry): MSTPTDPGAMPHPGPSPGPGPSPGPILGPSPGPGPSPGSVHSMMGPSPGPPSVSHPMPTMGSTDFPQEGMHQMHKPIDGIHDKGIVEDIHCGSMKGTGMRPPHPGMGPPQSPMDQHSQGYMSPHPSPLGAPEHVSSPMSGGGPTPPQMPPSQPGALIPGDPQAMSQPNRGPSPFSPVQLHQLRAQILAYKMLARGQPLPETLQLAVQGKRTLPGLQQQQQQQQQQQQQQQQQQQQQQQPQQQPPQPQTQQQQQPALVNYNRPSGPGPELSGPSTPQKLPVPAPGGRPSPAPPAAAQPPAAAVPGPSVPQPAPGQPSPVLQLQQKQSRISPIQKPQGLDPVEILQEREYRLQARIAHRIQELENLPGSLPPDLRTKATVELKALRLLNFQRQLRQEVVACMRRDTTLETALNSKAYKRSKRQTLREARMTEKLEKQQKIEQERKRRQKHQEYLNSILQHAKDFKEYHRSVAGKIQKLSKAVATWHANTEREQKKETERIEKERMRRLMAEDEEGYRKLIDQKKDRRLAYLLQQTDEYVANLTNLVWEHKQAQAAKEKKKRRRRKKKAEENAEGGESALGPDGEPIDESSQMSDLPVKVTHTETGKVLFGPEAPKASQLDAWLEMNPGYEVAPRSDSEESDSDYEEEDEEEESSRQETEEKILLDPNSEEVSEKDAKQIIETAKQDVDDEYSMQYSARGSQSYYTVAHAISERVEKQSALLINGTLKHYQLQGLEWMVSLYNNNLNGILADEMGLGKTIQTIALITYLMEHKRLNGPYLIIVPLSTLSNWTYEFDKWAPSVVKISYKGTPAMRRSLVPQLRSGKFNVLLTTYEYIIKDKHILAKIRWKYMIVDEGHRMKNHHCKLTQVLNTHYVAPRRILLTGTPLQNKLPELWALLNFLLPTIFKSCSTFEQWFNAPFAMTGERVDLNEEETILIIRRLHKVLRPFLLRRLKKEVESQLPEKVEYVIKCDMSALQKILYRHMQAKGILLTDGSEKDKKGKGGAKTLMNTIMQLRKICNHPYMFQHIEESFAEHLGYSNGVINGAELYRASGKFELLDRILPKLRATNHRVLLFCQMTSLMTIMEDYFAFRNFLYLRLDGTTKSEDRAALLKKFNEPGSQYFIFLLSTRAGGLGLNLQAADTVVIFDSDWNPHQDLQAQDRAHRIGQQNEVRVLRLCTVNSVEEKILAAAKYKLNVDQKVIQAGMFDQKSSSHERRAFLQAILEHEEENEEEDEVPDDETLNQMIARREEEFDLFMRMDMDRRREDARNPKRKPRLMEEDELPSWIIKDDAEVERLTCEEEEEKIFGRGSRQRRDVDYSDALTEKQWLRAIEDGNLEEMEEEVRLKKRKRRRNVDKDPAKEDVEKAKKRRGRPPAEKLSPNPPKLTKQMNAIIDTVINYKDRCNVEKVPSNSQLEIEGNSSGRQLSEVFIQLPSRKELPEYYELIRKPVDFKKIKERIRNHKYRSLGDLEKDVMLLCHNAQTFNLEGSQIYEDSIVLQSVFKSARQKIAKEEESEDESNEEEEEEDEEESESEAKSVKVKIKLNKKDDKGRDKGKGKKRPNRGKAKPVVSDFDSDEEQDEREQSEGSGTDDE

Row | EC50 (MV-4-11 cells; Homo sapiens, MV4-11, 72 h) [nM] | EC50 (SK-MEL-5 cells; Homo sapiens) [nM] | inhibition at 0.1 µM (SMARCA2) [%] | EC50 (MV-4-11 cells) [nM] | EC50 (SK-MEL-5 cells) [nM] | Structure (SMILES)
1 | > 100 | > 100 | – | – | – | Cc1cccc2c1c(=O)nc1n(C3CCCC3)c3cc(N4CCC(N5CCC(c6ccc(NC7CCC(=O)NC7=O)cc6F)CC5)CC4)ccc3n21 (stereo not shown) [Compound 33, 3-((4-(1′-(7-cyclopentyl-4-methyl-5-oxo-5,7-dihydrobenzo[4,5]imidazo[1,2-a]quinazolin-9-yl)-[1,4′-bipiperidin]-4-yl)-3-fluorophenyl)amino)piperidine-2,6-dione]
2 | > 100 | > 100 | – | – | – | O=C1CCC(N2Cc3cc(C4CCN(C5CCN(c6ccc7c(c6)n(C6CCCC6)c6nc(=O)c8cnccc8n76)CC5)CC4)ccc3C2=O)C(=O)N1 (stereo not shown) [Compound 19, 3-(5-(1′-(7-cyclopentyl-5-oxo-5,7-dihydrobenzo[4,5]imidazo[1,2-a]pyrido[3,4-e]pyrimidin-9-yl)-[1,4′-bipiperidin]-4-yl)-1-oxoisoindolin-2-yl)piperidine-2,6-dione]
3 | > 100 | > 100 | 16 | – | – | CC(C)n1c2cc(N3CCC(N4CCN(c5ccc(C6CCC(=O)NC6=O)cc5)CC4)CC3)ccc2n2c3cccc(N)c3c(=O)nc12 (stereo not shown) [Compound 44, 3-(4-(4-(1-(4-amino-7-isopropyl-5-oxo-5,7-dihydrobenzo[4,5]imidazo[1,2-a]quinazolin-9-yl)piperidin-4-yl)piperazin-1-yl)phenyl)piperidine-2,6-dione]
4 | > 100 | > 100 | 21 | – | – | Cn1c2cc(N3CCN(C4CN(c5ccc6c(c5)C(=O)N(C5CCC(=O)NC5=O)C6=O)C4)CC3)ccc2n2c3cccc(N)c3c(=O)nc12 (stereo not shown) [Compound 45, 5-(3-(4-(4-amino-7-methyl-5-oxo-5,7-dihydrobenzo[4,5]imidazo[1,2-a]quinazolin-9-yl)piperazin-1-yl)azetidin-1-yl)-2-(2,6-dioxopiperidin-3-yl)isoindoline-1,3-dione]
5 | > 100 | > 100 | – | – | – | Cn1c2cc(N3CCC(N4CCN(c5ccc6c(c5)CN(C5CCC(=O)NC5=O)C6=O)CC4)CC3)ccc2n2c3cccc(N)c3c(=O)nc12 (stereo not shown) [Compound 42, 3-(5-(4-(1-(4-amino-7-methyl-5-oxo-5,7-dihydrobenzo[4,5]imidazo[1,2-a]quinazolin-9-yl)piperidin-4-yl)piperazin-1-yl)-1-oxoisoindolin-2-yl)piperidine-2,6-dione]
6 | > 100 | > 100 | – | – | – | O=C1CCC(N2Cc3cc(C4CCN(C5CCN(c6ccc7c(c6)n(C6CCCC6)c6nc(=O)c8ccccc8n76)CC5)CC4)ccc3C2=O)C(=O)N1 (stereo not shown) [Compound 10, 3-(5-(1′-(7-cyclopenty1-5-oxo-5,7-dihydrobenzo[4,5]imidazo[1,2-a]quinazolin-9-yl)-[1,4′-bipiperidin]-4-yl)-1-oxoisoindolin-2-yl)piperidine-2,6-dione]
7 | < 10 | < 10 | – | – | – | CC(C)n1c2cc(N3CCC(N4CCC(c5ccc6c(c5)CN(C5CCC(=O)NC5=O)C6=O)CC4)CC3)ccc2n2c3cccc(Cl)c3c(=O)nc12 (stereo not shown) [Compound 28, 3-(5-(1′-(4-chloro-7-isopropyl-5-oxo-5,7-dihydrobenzo[4,5]imidazo[1,2-a]quinazolin-9-yl)-[1,4′-bipiperidin]-4-yl)-1-oxoisoindolin-2-yl)piperidine-2,6-dione-HCl salt]
8 | > 100 | < 10 | – | – | – | CC(C)n1c2cc(N3CCC(N4CCN(c5ccc6c(c5)CN(C5CCC(=O)NC5=O)C6=O)CC4)CC3)ccc2n2c3cccc(Cl)c3c(=O)nc12 (stereo not shown) [Compound 48, 3-(5-(4-(1-(4-chloro-7-isopropyl-5-oxo-5,7-dihydrobenzo[4,5]imidazo[1,2-a]quinazolin-9-yl)piperidin-4-yl)piperazin-1-yl)-1-oxoisoindolin-2-yl)piperidine-2,6-dione]
9 | > 100 | > 100 | – | – | – | O=C1CCC(c2ccc(C3CCN(C4CCN(c5ccc6c(c5)n(C5CCCC5)c5nc(=O)c7c(C(F)(F)F)cccc7n65)CC4)CC3)cc2)C(=O)N1 (stereo not shown) [Compound 13, 3-(4-(1′-(7-cyclopentyl-5-oxo-4-(trifluoromethyl)-5,7-dihydrobenzo[4,5]imidazo[1,2-a]quinazolin-9-yl)-[1,4′-bipiperidin]-4-yl)phenyl)piperidine-2,6-dione]
10 | > 100 | > 100 | – | – | – | O=C1CCC(NC(=O)c2ccc(C3CCN(C4CCN(c5ccc6c(c5)n(C5CCCC5)c5nc(=O)c7c(Cl)cccc7n65)CC4)CC3)cc2F)C(=O)N1 (stereo not shown) [Compound 39, 4-(1′-(4-chloro-7-cyclopentyl-5-oxo-5,7-dihydrobenzo[4,5]imidazo[1,2-a]quinazolin-9-yl)-[1,4′-bipiperidin]-4-yl)-N-(2,6-dioxopiperidin-3-yl)-2-fluorobenzamide]
11 | > 100 | > 100 | – | – | – | Cn1nc(N2CCC(=O)NC2=O)c2cc(F)c(N3CCN(C4CCN(c5ccc6c(c5)n(C)c5nc(=O)c7c(N)cccc7n65)CC4)CC3)cc21 [Compound 41, 1-(6-(4-(1-(4-amino-7-methyl-5-oxo-5,7-dihydrobenzo[4,5]imidazo[1,2-a]quinazolin-9-yl)piperidin-4-yl)piperazin-1-yl)-5-fluoro-1-methyl-1H-indazol-3-yl)dihydropyrimidine-2,4(1H,3H)-dione]
12 | > 100 | > 100 | – | – | – | O=C1CCC(Nc2ccc(C3CCN(C4CCN(c5ccc6c(c5)n(C5CCCC5)c5nc(=O)c7c(O)cccc7n65)CC4)CC3)c(F)c2)C(=O)N1 (stereo not shown) [Compound 12, 3-((4-(1′-(7-cyclopentyl-4-hydroxy-5-oxo-5,7-dihydrobenzo[4,5]imidazo[1,2-a]quinazolin-9-yl)-[1,4′-bipiperidin]-4-yl)-3-fluorophenyl)amino)piperidine-2,6-dione-HCl salt]
13 | > 100 | > 100 | – | – | – | Cn1c2cc(-c3ccc(N4CCN(c5ccc(NC6CCC(=O)NC6=O)cc5F)CC4)cc3)ccc2n2c3cccc(N)c3c(=O)nc12 (stereo not shown) [Compound 49, 3-((4-(4-(4-(4-amino-7-methyl-5-oxo-5,7-dihydrobenzo[4,5]imidazo[1,2-a]quinazolin-9-yl)phenyl)piperazin-1-yl)-3-fluorophenyl)amino)piperidine-2,6-dione]
14 | > 100 | > 100 | – | – | – | Cn1c2cc(N3CCN(CC4CCN(c5ccc6c(c5)CN(C5CCC(=O)NC5=O)C6=O)CC4)CC3)ccc2n2c3cccc(N)c3c(=O)nc12 (stereo not shown) [Compound 43, 3-(5-(4-((4-(4-amino-7-methyl-5-oxo-5,7-dihydrobenzo[4,5]imidazo[1,2-a]quinazolin-9-yl)piperazin-1-yl)methyl)piperidin-1-yl)-1-oxoisoindolin-2-yl)piperidine-2,6-dione]
15 | – | – | – | < 10 | < 10 | O=C1CCC(Nc2ccc(C3CCN(C4CCN(c5ccc6c(c5)n(C5CCCC5)c5nc(=O)c7c(Cl)cccc7n65)CC4)CC3)c(F)c2)C(=O)N1 (stereo not shown) [Compound 38, 3-((4-(1′-(4-chloro-7-cyclopentyl-5-oxo-5,7-dihydrobenzo[4,5]imidazo[1,2-a]quinazolin-9-yl)-[1,4′-bipiperidin]-4-yl)-3-fluorophenyl)amino)piperidine-2,6-dione]
16 | > 100 | < 10 | – | – | – | Cn1c2cc(N3CCC(N4CCN(c5ccc(NC6CCC(=O)NC6=O)cc5F)CC4)CC3)ccc2n2c3cccc(Cl)c3c(=O)nc12 (stereo not shown) [Compound 46, 3-((4-(4-(1-(4-chloro-7-methyl-5-oxo-5,7-dihydrobenzo[4,5]imidazo[1,2-a]quinazolin-9-yl)piperidin-4-yl)piperazin-1-yl)-3-fluorophenyl)amino)piperidine-2,6-dione]
